Measured values as given in ChEMBL document CHEMBL4673390, “Discovery of Aminopyrazole Derivatives as Potent Inhibitors of Wild-Type and Gatekeeper Mutant FGFR2 and 3” (ACS Med Chem Lett, 2021).

How the values were obtained:
in vitro [1] = conditions: mouse, blood
in vitro [2] = conditions: human, Caco-2
in vitro [3] = conditions: human, blood
in vivo [4] = conditions: CD-1, mouse, iv, 5 mg/kg
in vivo [5] = conditions: CD-1, mouse, iv, 5 mg/kg; remark: listed apart in the source
in vivo [6] = conditions: CD-1, mouse, po, 10 mg/kg
in vivo [7] = conditions: CD-1, mouse, po, 10 mg/kg; remark: listed apart in the source
in vivo [8] = conditions: CD-1, mouse, po, 10 mg/kg; remark: listed apart in the source

Vd at 24 h (in vivo [4]) [L/kg] | clearance at 24 h (in vivo [5]) [mL/min/kg] | Cmax at 24 h (in vivo [6]) [ng/mL] | bioavailability at 24 h (in vivo [7]) [%] | AUC at 24 h (in vivo [8]) [ng·h/mL] | Structure (SMILES) | half-life at 2 h, 2 µM (in vitro [1]) [h] | Papp A→B at 2 h (in vitro [2]) [×10⁻⁶ cm/s] | half-life at 2 h, 2 µM (in vitro [3]) [h]
– | – | – | – | – | C=CC(=O)Nc1ccc(CCc2nc(Nc3cc(C)[nH]n3)cc(N3CCN(C)CC3)n2)cc1 | 2.62 | 0.3 | 4.12
3.1 | 86.3 | 103 | 21 | 400 | C=CC(=O)Nc1ccc(/C=C/c2nc(Nc3cc(C(C)C)[nH]n3)cc(N3CCN(C)CC3)n2)cc1 | 1.9 | 0.1 | 2.02
– | – | – | – | – | C=CC(=O)N1CCC2(CCN(c3nc(Nc4cc(C(C)C)[nH]n4)cc(N4CCN(C)CC4)n3)CC2)C1 | 2.73 | 0.2 | 3.03
